Molecular target: T1, PsCITase (core domain) (Paenibacillus sp. 598K, UniProt G9MBW2)
T1 construct: gene cit; core domain 41-739 (N-terminal 40 and C-terminal 235 residues, incl. CBM35-2, removed), N-terminal pET15b His tag (numbered Met21-Met40), E. coli BL21(DE3); full length 972 residues
Test: X-ray crystallography, crystal soaked with […] CI-7, […] A
Type: binding

T1 sequence (G9MBW2 entry or part of it): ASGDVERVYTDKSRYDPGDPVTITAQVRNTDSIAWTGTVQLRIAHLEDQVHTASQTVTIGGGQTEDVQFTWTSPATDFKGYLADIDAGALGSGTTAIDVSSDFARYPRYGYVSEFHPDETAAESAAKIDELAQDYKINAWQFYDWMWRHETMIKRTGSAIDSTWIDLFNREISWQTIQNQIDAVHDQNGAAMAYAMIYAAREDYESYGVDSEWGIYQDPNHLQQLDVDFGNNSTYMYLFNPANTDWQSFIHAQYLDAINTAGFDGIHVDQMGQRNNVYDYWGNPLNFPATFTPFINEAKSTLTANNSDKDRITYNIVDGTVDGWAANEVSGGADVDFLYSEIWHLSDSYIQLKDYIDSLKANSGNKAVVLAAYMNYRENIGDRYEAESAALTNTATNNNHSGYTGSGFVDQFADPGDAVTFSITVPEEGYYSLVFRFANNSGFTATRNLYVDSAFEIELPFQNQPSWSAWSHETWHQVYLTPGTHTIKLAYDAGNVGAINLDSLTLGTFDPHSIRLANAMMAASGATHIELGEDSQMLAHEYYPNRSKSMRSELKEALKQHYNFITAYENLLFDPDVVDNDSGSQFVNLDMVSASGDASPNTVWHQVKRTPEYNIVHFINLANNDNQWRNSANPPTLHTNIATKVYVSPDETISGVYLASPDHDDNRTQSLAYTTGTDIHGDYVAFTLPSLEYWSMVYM

## O[C@@H]1[C@@H](O)[C@H]2OC[C@H]3O[C@H](OC[C@H]4O[C@H](OC[C@H]5O[C@H](OC[C@H]6O[C@H](OC[C@H]7O[C@H](OC[C@H]8O[C@H](OC[C@@H](O2)[C@H]1O)[C@H](O)[C@@H](O)[C@@H]8O)[C@H](O)[C@@H](O)[C@@H]7O)[C@H](O)[C@@H](O)[C@@H]6O)[C@H](O)[C@@H](O)[C@@H]5O)[C@H](O)[C@@H](O)[C@@H]4O)[C@H](O)[C@@H](O)[C@@H]3O [CI-7, cycloisomaltoheptaose]
Variable loop (canonical) site of PsCBM35-1, Trp507, on crystallographic two-fold axis, averaged density, soaked CI-7 is hydrolysed at the catalytic site
  X-ray crystallography, crystal soaked with 5% CI-7, 2.60 A: The bound sugar appeared to be soaked CI-7 with the cyclic sugar chain structure

## OC[C@H]1O[C@H](OC[C@H]2O[C@H](OC[C@H]3O[C@H](OC[C@H]4O[C@H](OC[C@H]5O[C@H](OC[C@H]6O[C@H](OC[C@H]7OC(O)[C@H](O)[C@@H](O)[C@@H]7O)[C@H](O)[C@@H](O)[C@@H]6O)[C@H](O)[C@@H](O)[C@@H]5O)[C@H](O)[C@@H](O)[C@@H]4O)[C@H](O)[C@@H](O)[C@@H]3O)[C@H](O)[C@@H](O)[C@@H]2O)[C@H](O)[C@@H](O)[C@@H]1O (some centres unmarked) [IG-7, isomaltoheptaose]
Catalytic cleft, subsites -7 to -1, hydrolysis product of soaked CI-7, Glc-1 density ambiguous
  X-ray crystallography, crystal soaked with 5% CI-7, 2.60 A: the bound CI-7 was observed as the cleaved linear form like isomaltoheptaose (IG-7)

— publication PMC5408701, “Isomaltooligosaccharide-binding structure of Paenibacillus sp. 598K cycloisomaltooligosaccharide glucanotransferase” (Bioscience Reports, 2017)
